US7109181B2, “Joint lubrication with P2Y purinergic receptor agonists” (Inspire Pharmaceuticals, Inc., priority 2001, dated 2006)

Each compound was assayed on synovial fibroblasts (assay: Measurement of cytosolic calcium in cultured synovial fibroblasts (Fluo-3 AM, FLIPR)). Conditions: synovial fibroblasts stimulated with increasing concentrations of P2Y receptor agonists; FIG. 1.
Type: cell-based
From the text: The pharmaceutical utility of compounds of this invention is indicated by the cytosolic calcium assay for P2Y2 and other P2Y receptor activity. This widely used assay, as described in Pendergast, et al. (2001) (Bioorg. Med. Chem. Lett. 11, 157-160), relies on the measurement of increased cytosolic calcium levels to determine the biological activity of compounds that activate receptors linked via G-proteins to phospholipase C. The efficacy of these compounds is reflected in their ability to alter and/or enhance the secretory activity of the joints, including but not limited to, the knee, hip, and shoulder, to effectuate the agent's target response. The target response is the improvement of joint lubrication and movement.
A conventional technique was used to detect increases in cytosolic calcium induced by P2Y receptor agonists, a technique familiar to those skilled in the art. Cells were seeded in 96-well plates and used for cytosolic calcium assays. On the day of the assay, the growth medium was aspirated and replaced with a solution of Fluo-3 AM (2.5 μM final concentration) in an assay buffer consisting of (mM): KCl (10), NaCl (118), CaCl2 (2.5), MgCl2 (1), HEPES (20), glucose (10), pH 7.4. Probenecid (Sigma Chemical Co.) was added to the dye load and dye wash medium at a working concentration of 2.5 mM to increase dye retention in the cells. After a 60 minute incubation with Fluo-3 AM at 25° C., cells were washed free of dye (Columbus Plate Washer, TECAN U.S., Inc., Research Triangle Park, N.C.) and were stimulated with increasing concentrations of P2Y receptor agonists. Intracellular calcium levels were simultaneously monitored in each well by measuring the changes in fluorescence intensity using the FLIPR (Molecular Devices Corp., Sunnyvale, Calif.).
Synovial fibroblasts were subjected to the cytosolic calcium assay described above. […] The induction of increases in cytosolic calcium by ATP and UTP in synovial fibroblasts indicated the pharmaceutical utility of P2Y2 receptor agonists in the joint.

SMILES | effect on cytosolic calcium levels
CSc1nc(N)c2ncn([C@@H]3O[C@H](COP(=O)(O)OP(=O)(O)O)[C@@H](O)[C@H]3O)c2n1 [2-methylthioADP, reference compound] | did not alter cytosolic calcium concentration
Nc1ncnc2c1ncn2[C@@H]1O[C@H](COP(=O)(O)OP(=O)(O)OP(=O)(O)O)[C@@H](O)[C@H]1O [ATP, adenosine-5′-triphosphate] | stimulate increases in cytosolic calcium
O=c1ccn([C@@H]2O[C@H](COP(=O)(O)OP(=O)(O)OP(=O)(O)O)[C@@H](O)[C@H]2O)c(=O)[nH]1 [UTP, uridine-5′-triphosphate] | stimulate increases in cytosolic calcium
